According to ChEMBL document CHEMBL4732160, “Design and synthesis of 7-O-1,2,3-triazole hesperetin derivatives to relieve inflammation of acute liver injury in mice” (Eur J Med Chem, 2021):
Active and inactive are the calls of the source. No cut-off for these calls is given here.

Key:
RAW264.7 [1] = assay: Antiinflammatory activity in mouse RAW264.7 cells assessed as inhibition of LPS-induced NO production at 10 uM preincubated for 2 hrs followed by LPS stimulation and measured after 24 hrs by Griess method relative to control; type: functional; settings: time 26 hrs
RAW264.7 [2] = assay: Antiinflammatory activity in mouse RAW264.7 cells assessed as inhibition of LPS-induced NO production preincubated for 2 hrs followed by LPS stimulation and measured after 24 hrs by Griess method; type: functional, cell-based
[3] = Cytotoxicity against mouse RAW264.7 cells assessed as cell viability at 40 uM measured after 24 hrs by MTT assay relative to control; type: cell-based
RAW264.7 [4] = assay: Cytotoxicity against mouse RAW264.7 cells assessed as reduction in cell viability at 60 uM measured after 24 hrs by MTT assay; type: cell-based; settings: raw264.7, 24 h
RAW264.7 [5] = assay: Antiinflammatory activity in mouse RAW264.7 cells assessed as inhibition of LPS-induced TNFalpha production at 10 uM preincubated for 1 hr followed by LPS stimulation and measured after 22 hrs by ELISA; type: functional, cell-based; settings: time 23.0 hrs
RAW264.7 [6] = assay: Antiinflammatory activity in mouse RAW264.7 cells assessed as inhibition of LPS-induced IL1beta production at 10 uM preincubated for 1 hr followed by LPS stimulation and measured after 22 hrs by ELISA; type: functional, cell-based; settings: time 23.0 hrs
RAW264.7 [7] = assay: Antiinflammatory activity in mouse RAW264.7 cells assessed as inhibition of LPS-induced IL6 production at 10 uM preincubated for 1 hr followed by LPS stimulation and measured after 22 hrs by ELISA; type: functional, cell-based; settings: time 23.0 hrs
RAW264.7 [8] = assay: Antiinflammatory activity in mouse RAW264.7 cells assessed as inhibition of LPS-induced TNFalpha production preincubated for 1 hr followed by LPS stimulation and measured after 22 hrs by ELISA; type: functional, cell-based; settings: dose 1.25-20 µM, time 23.0 hrs
RAW264.7 [9] = assay: Antiinflammatory activity in mouse RAW264.7 cells assessed as inhibition of LPS-induced IL1beta production preincubated for 1 hr followed by LPS stimulation and measured after 22 hrs by ELISA; type: functional, cell-based; settings: dose 1.25-20 µM, time 23.0 hrs
RAW264.7 [10] = assay: Antiinflammatory activity in mouse RAW264.7 cells assessed as inhibition of LPS-induced IL6 production preincubated for 1 hr followed by LPS stimulation and measured after 22 hrs by ELISA; type: functional, cell-based; settings: dose 1.25-20 µM, time 23.0 hrs
RAW264.7 [11] = assay: Antiinflammatory activity in mouse RAW264.7 cells assessed as inhibition of LPS-induced iNOS expression preincubated for 1 hr followed by LPS stimulation and measured after 24 hrs by Western blot analysis; type: functional, cell-based; settings: dose 5-20 µM, time 25.0 hrs
RAW264.7 [12] = assay: Antiinflammatory activity in mouse RAW264.7 cells assessed as inhibition of LPS-induced COX2 expression preincubated for 1 hr followed by LPS stimulation and measured after 24 hrs by Western blot analysis; type: functional, cell-based; settings: dose 5-20 µM, time 25.0 hrs
RAW264.7 [13] = assay: Inhibition of LPS-induced NFkappaB activation in mouse RAW264.7 cells assessed as reduction in IkappaBalpha phosphorylation at 5 to 20 uM preincubated for 1 hr followed by LPS-stimulation and measured after 0.5 hrs by Western blot analysis; type: cell-based; settings: dose 5-20 µM, time 1.5 hrs
RAW264.7 [14] = assay: Inhibition of LPS-induced NFkappaB activation in mouse RAW264.7 cells assessed as reduction in p65 nuclear translocation preincubated for 1 hr followed by LPS-stimulation and measured after 0.5 hrs by Western blot analysis; type: cell-based; settings: dose 5-20 µM, time 1.5 hrs
RAW264.7 [15] = assay: Antiinflammatory activity in mouse RAW264.7 cells assessed as inhibition of LPS-induced ROS production preincubated for 1 hr followed by LPS stimulation and measured after 24 hrs by DCFH-DA staining based flow cytometry; type: functional, cell-based; settings: dose 2.5-10 µM, time 25.0 hrs
Mus musculus [16] = assay: Antiinflammatory activity in CCl4-induced C57BL/6J mouse model of liver injury assessed as reduction in liver damage at 50 to 200 mg/kg administered daily for 7 days followed by CCl4 addition and measured after 24 hrs by H and E staining based microscopic analysis; type: functional, organism-based; settings: dose 50-200 mg/kg, time 8.0 day
Mus musculus [17] = assay: Antiinflammatory activity in CCl4-induced C57BL/6J mouse model of liver injury assessed as reduction in ALT level administered daily for 7 days followed by CCl4 addition and measured after 24 hrs; type: functional, organism-based; settings: dose 50-200 mg/kg, time 8.0 day
Mus musculus [18] = assay: Antiinflammatory activity in CCl4-induced C57BL/6J mouse model of liver injury assessed as reduction in TNFalpha expression administered daily for 7 days followed by CCl4 addition and measured after 24 hrs by ELISA; type: functional, organism-based; settings: dose 50-200 mg/kg, time 8.0 day
Mus musculus [19] = assay: Antiinflammatory activity in CCl4-induced C57BL/6J mouse model of liver injury assessed as reduction in IL1beta expression administered daily for 7 days followed by CCl4 addition and measured after 24 hrs by ELISA; type: functional, organism-based; settings: dose 50-200 mg/kg, time 8.0 day
Mus musculus [20] = assay: Antiinflammatory activity in CCl4-induced C57BL/6J mouse model of liver injury assessed as reduction in IL6 expression administered daily for 7 days followed by CCl4 addition and measured after 24 hrs by ELISA; type: functional, organism-based; settings: dose 50-200 mg/kg, time 8.0 day

What does the source list for `CCCn1cc(COc2cc(O)c3c(c2)O[C@H](c2ccc(OC)c(O)c2)C/C3=N\O)nn1`?
inhibition at 10 µM (RAW264.7 [1]): 67.5%; IC50 (RAW264.7 [2]): 2.34 µM; viability at 24 h, 40 µM [3]: 114%; Activity (RAW264.7 [4]): Non-Toxic; inhibition (RAW264.7 [5]): Active; inhibition (RAW264.7 [6]): Active; inhibition (RAW264.7 [7]): Active; inhibition (RAW264.7 [8]): Dose-dependent effect; inhibition (RAW264.7 [9]): Dose-dependent effect; inhibition (RAW264.7 [10]): Dose-dependent effect; inhibition (RAW264.7 [11]): Dose-dependent effect; inhibition (RAW264.7 [12]): Dose-dependent effect; inhibition (RAW264.7 [13]): Active; inhibition (RAW264.7 [14]): Dose-dependent effect; inhibition (RAW264.7 [15]): Dose-dependent effect; Activity (Mus musculus [16]): Active; Activity (Mus musculus [17]): Dose-dependent effect; Activity (Mus musculus [18]): Dose-dependent effect; Activity (Mus musculus [19]): Dose-dependent effect; Activity (Mus musculus [20]): Dose-dependent effect

Which inhibition at 10 µM (RAW264.7 [1]) does the source give for `COc1ccc([C@@H]2CC(=O)c3c(O)cc(OCc4cn(Cc5ccccc5C#N)nn4)cc3O2)cc1O` here?
Its inhibition at 10 µM is 43.6%.

What about the IC50 (RAW264.7 [2]) of the same molecule?
The IC50 was 14.6 µM.

And the viability at 24 h, 40 µM [3]?
Its viability at 24 h, 40 µM is 114%.

And the inhibition (RAW264.7 [5])?
The inhibition was “Active”.

And the inhibition (RAW264.7 [6])?
The inhibition was “Active”.

And the inhibition (RAW264.7 [7])?
The inhibition was “Active”.

Which inhibition at 10 µM (RAW264.7 [1]) does the source give for `COc1ccc([C@@H]2CC(=O)c3c(O)cc(OCc4cn(C)nn4)cc3O2)cc1O` here?
Its inhibition at 10 µM is 40%.

And the IC50 (RAW264.7 [2])?
The IC50 was 15.2 µM.

And the viability at 24 h, 40 µM [3]?
Its viability at 24 h, 40 µM is 105%.

What about the inhibition (RAW264.7 [5]) of the same molecule?
The inhibition was “Active”.

And the inhibition (RAW264.7 [6])?
Its inhibition is “Active”.

And the inhibition (RAW264.7 [7])?
The inhibition was “Active”.

What does the source list for `COc1ccc([C@@H]2CC(=O)c3c(O)cc(OCc4cn(Cc5ccccc5C)nn4)cc3O2)cc1O`?
inhibition at 10 µM (RAW264.7 [1]): 45.7%; IC50 (RAW264.7 [2]): 13.1 µM; viability at 24 h, 40 µM [3]: 100%; inhibition (RAW264.7 [5]): Active; inhibition (RAW264.7 [6]): Active; inhibition (RAW264.7 [7]): Active

For `COc1ccc([C@@H]2CC(=O)c3c(O)cc(OCc4cn(CC(=O)c5ccccc5Cl)nn4)cc3O2)cc1O`, which inhibition at 10 µM (RAW264.7 [1]) is on record?
The inhibition at 10 µM was 34.1%.

And the IC50 (RAW264.7 [2])?
Its IC50 is 13.2 µM.

And the viability at 24 h, 40 µM [3]?
The viability at 24 h, 40 µM was 99%.

And the inhibition (RAW264.7 [5])?
Its inhibition is “Active”.

And the inhibition (RAW264.7 [6])?
The inhibition was “Active”.

What about the inhibition (RAW264.7 [7]) of the same molecule?
Its inhibition is “Active”.

What does the source list for `COc1ccc([C@@H]2C/C(=N\O)c3c(O)cc(OCc4cn(Cc5ccccc5Cl)nn4)cc3O2)cc1O`?
inhibition at 10 µM (RAW264.7 [1]): 33%; IC50 (RAW264.7 [2]): 13.3 µM; viability at 24 h, 40 µM [3]: 86%; inhibition (RAW264.7 [5]): Active; inhibition (RAW264.7 [6]): Active; inhibition (RAW264.7 [7]): Active

With `COc1ccc([C@@H]2C/C(=N\O)c3c(O)cc(OCc4cn(C5CCCC5)nn4)cc3O2)cc1O` as the molecule, how does the inhibition at 10 µM (RAW264.7 [1]) read?
The inhibition at 10 µM was 63.7%.

And the IC50 (RAW264.7 [2])?
The IC50 was 6.88 µM.

What about the viability at 24 h, 40 µM [3] of the same molecule?
Its viability at 24 h, 40 µM is 112%.

And the inhibition (RAW264.7 [5])?
The inhibition was “Active”.

What about the inhibition (RAW264.7 [6]) of the same molecule?
The inhibition was “Active”.

And the inhibition (RAW264.7 [7])?
The inhibition was “Active”.

What does the source list for `COc1ccc([C@@H]2CC(=O)c3c(O)cc(OCc4cn(CC5CC5)nn4)cc3O2)cc1O`?
inhibition at 10 µM (RAW264.7 [1]): 48.8%; IC50 (RAW264.7 [2]): 11.9 µM; viability at 24 h, 40 µM [3]: 87%; inhibition (RAW264.7 [5]): Active; inhibition (RAW264.7 [6]): Active; inhibition (RAW264.7 [7]): Active

For `COc1ccc([C@@H]2CC(=O)c3c(O)cc(OCc4cn(Cc5ccc(C)cc5)nn4)cc3O2)cc1O`, which inhibition at 10 µM (RAW264.7 [1]) is on record?
The inhibition at 10 µM was 29.4%.

And the IC50 (RAW264.7 [2])?
Its IC50 is 16.8 µM.

And the viability at 24 h, 40 µM [3]?
The viability at 24 h, 40 µM was 110%.

And the inhibition (RAW264.7 [5])?
Its inhibition is “Active”.

And the inhibition (RAW264.7 [6])?
The inhibition was “Active”.

And the inhibition (RAW264.7 [7])?
The inhibition was “Active”.
